Source: ChEMBL document CHEMBL3044815, “Inhibitory effects on nuclear factor B of the Vietnamese freshwater cyanobacteria” (Med Chem Res, 2011)

How the values were obtained:
[1] = Inhibition of TNFalpha-induced NF-kappaB activity (unknown origin) expressed in HeLa cells cotreated with compound and 10 ng/ml TNF-alpha for 24 hr by reporter gene assay; assay type: cell-based, Homo sapiens
HeLa = assay: Cytotoxicity against Homo sapiens (human) HeLa cells after 48 hr by MTT assay; assay type: functional, cell-based
[2] = Homo sapiens, HeLa, 24 h, read-out: IC50

Compound	IC50 ([1]; hela)	Activity (HeLa)	IC50 [1, 2] [µg/mL]
CC[C@H](CC[C@@H](C)[C@H]1CC[C@H]2[C@@H]3CC=C4C[C@@H](O)CC[C@]4(C)[C@H]3CC[C@]12C)C(C)C [BETA-SITOSTEROL]	Not Active	Dose-dependent effect	–
CC1=C(O)C(=O)C=C2C1=CC=C1[C@@]2(C)CC[C@@]2(C)[C@@H]3C[C@](C)(C(=O)O)CC[C@]3(C)CC[C@]12C [CELASTROL]	–	Dose-dependent effect	0.72
CC(C)[C@@H](C)/C=C/[C@@H](C)[C@H]1CC[C@H]2C3=CC=C4C[C@@H](O)CC[C@]4(C)[C@H]3CC[C@]12C [ERGOSTEROL]	–	Dose-dependent effect	0.91
CC[C@H](/C=C/[C@@H](C)[C@H]1CC[C@H]2[C@@H]3CC=C4C[C@@H](O)CC[C@]4(C)[C@H]3CC[C@]12C)C(C)C [STIGMASTEROL]	Not Active	Dose-dependent effect	–
